Experimental data reported in article PMC3689634, “Self-assembled peptide amphiphiles function as multivalent binder with increased hemagglutinin affinity” (BMC Biotechnology, 2013).
Entries after “also recorded” stand apart in the source; their conditions may differ.

Columns and labels:
[1] = tested on: HA receptor (hemagglutinin); conditions: monovalent binding; cited from earlier work
[2] = tested on: hemagglutinin H5 (HA1 aa 17–338, A/chicken/Jilin/9/2004 (H5N1)); type: binding, influenza A virus (H5N1); conditions: pH 7.4

| Compound | association constant, single SA molecule to a single HA receptor [1] | SPR binding signal to immobilised H5 (in words) [2] |
| --- | --- | --- |
| CC(=O)N[C@H]1[C@H]([C@H](O)[C@H](O)CO)OC(O)(C(=O)O)C[C@@H]1O (some centres unmarked) [SA, sialic acid] | 10^3 M^-1 |  |
| C16-GSWGEW [negative control] |  | no binding affinity; also recorded: no quantitative measurable signal changes |
